Experimental data taken from article PMC3914206.

How the values were obtained:
Format in all cases: binding
Details in all cases: Compound Concentration 10 µM
[1] = target: T1, panel of 442 kinases (Homo sapiens, UniProt P22607)
T1 construct: purchased KINOMEscan
Text: (§1) We assessed the selectivity of members of this scaffold using the KINOMEscan methodology across a near comprehensive panel of 442 kinases [[18,27]].

[2] = target: T2, panel of 442 kinases (Homo sapiens, UniProt P29376)
T2 construct: purchased KINOMEscan
Text: as §1

[3] = target: T3, panel of 442 kinases (Homo sapiens, UniProt Q9Y2H9)
T3 construct: purchased KINOMEscan
Text: as §1

T2 sequence (P29376 17-864): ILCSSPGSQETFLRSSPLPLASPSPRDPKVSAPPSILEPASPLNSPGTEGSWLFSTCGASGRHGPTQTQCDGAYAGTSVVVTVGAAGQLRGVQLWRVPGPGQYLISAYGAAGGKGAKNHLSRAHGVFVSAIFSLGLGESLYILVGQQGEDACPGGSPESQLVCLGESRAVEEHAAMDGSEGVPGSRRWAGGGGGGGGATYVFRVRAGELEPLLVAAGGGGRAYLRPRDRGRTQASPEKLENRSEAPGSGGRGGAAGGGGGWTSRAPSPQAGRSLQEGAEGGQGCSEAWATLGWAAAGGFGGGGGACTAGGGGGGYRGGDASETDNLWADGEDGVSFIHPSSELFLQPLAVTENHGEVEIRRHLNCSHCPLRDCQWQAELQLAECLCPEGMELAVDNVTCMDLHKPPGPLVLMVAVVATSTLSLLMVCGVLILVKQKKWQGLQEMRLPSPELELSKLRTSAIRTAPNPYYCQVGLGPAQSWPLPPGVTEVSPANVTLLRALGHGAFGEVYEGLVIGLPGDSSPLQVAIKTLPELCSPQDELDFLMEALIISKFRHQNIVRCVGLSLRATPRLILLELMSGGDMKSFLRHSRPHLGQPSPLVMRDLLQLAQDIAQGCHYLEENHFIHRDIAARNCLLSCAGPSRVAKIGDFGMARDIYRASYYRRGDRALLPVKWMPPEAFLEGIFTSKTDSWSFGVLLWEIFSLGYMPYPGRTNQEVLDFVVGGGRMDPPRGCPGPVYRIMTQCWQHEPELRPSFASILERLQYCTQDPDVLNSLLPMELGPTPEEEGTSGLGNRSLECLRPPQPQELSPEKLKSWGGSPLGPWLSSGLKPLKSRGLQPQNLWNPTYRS
T1 sequence (P22607 23-806): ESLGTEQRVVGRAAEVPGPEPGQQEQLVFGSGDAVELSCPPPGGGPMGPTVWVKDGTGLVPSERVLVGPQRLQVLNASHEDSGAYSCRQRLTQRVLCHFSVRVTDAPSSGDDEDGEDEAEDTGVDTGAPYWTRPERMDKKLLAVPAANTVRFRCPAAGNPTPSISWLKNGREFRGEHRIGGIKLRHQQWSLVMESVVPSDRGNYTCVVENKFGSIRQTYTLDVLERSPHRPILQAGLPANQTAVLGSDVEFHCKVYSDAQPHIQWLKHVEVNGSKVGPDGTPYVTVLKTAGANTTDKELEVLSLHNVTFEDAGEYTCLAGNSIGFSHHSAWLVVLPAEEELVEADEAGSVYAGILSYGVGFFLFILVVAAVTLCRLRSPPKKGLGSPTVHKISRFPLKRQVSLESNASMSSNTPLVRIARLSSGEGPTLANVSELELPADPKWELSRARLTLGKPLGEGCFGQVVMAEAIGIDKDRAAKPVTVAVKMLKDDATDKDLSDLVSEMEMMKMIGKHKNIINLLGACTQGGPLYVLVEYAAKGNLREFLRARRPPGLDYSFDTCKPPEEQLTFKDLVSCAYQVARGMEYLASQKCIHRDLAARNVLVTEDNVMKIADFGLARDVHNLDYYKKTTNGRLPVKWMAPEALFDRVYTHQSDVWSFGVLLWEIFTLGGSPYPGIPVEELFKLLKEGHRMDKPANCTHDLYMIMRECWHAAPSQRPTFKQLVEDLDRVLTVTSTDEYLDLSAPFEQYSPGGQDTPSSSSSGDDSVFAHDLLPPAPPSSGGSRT
T3 sequence (Q9Y2H9 whole entry): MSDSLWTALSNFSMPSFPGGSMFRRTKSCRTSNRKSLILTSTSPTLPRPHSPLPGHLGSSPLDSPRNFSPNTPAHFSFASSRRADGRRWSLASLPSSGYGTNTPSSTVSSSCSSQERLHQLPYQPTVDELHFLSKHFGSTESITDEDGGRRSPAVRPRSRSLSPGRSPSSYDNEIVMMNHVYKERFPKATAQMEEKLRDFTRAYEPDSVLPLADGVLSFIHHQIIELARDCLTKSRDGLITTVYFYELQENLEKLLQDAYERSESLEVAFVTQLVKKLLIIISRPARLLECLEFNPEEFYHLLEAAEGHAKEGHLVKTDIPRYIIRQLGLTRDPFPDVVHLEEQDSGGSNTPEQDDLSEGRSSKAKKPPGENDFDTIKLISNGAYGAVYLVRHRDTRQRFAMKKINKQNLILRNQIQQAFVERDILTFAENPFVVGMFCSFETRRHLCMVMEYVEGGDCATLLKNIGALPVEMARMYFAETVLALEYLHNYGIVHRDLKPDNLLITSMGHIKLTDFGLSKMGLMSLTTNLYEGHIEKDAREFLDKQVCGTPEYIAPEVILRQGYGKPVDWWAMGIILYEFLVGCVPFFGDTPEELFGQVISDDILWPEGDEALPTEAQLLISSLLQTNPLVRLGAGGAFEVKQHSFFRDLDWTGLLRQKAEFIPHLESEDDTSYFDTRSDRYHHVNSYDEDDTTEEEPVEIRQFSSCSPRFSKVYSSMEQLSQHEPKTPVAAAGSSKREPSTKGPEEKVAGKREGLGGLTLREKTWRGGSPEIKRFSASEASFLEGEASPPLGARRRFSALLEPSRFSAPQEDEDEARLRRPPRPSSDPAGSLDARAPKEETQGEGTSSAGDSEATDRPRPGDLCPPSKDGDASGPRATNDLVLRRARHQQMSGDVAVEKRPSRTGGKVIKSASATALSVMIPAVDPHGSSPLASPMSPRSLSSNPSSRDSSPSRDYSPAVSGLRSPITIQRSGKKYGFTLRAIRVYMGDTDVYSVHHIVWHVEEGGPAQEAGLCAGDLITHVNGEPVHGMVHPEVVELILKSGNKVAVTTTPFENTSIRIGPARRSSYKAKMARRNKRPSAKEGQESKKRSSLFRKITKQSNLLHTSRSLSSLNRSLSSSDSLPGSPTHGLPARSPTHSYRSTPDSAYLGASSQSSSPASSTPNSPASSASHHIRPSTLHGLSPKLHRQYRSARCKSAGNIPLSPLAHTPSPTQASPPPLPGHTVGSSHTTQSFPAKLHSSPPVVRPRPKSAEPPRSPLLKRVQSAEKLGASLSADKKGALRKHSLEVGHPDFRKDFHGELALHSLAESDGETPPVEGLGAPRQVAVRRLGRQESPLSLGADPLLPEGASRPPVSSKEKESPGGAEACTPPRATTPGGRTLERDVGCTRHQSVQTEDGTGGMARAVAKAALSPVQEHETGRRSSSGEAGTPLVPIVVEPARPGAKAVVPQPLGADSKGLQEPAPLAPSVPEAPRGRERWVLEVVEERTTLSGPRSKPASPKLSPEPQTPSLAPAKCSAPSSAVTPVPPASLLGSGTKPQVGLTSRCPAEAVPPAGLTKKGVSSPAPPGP

SMILES: COc1cc(C(=O)N2CCC(N3CCN(C)CC3)CC2)ccc1Nc1ncc2c(n1)N(C)c1ccccc1C(=O)N2C [15 (LRRK2-IN-1)]
- KINOMEscan: FGFR3 [1]: 80
- KINOMEscan: LTK [2]: 32
- KINOMEscan: MAST1 [3]: 100

SMILES: COc1cc(C(=O)N2CCC(N3CCN(C)CC3)CC2)ccc1Nc1ncc2c(n1)N1CCc3cccc(c31)C(=O)N2C [Compound 24]
- KINOMEscan: FGFR3 [1]: 80
- KINOMEscan: MAST1 [3]: 73

SMILES: COc1cc(C(=O)N2CCC(N3CCN(C)CC3)CC2)ccc1Nc1ncc2c(n1)N(C1CCCC1)c1ccccc1C(=O)N2C [Compound 25, 11-cyclopentyl-2-((2-methoxy-4-(4-(4-methylpiperazin-1-yl)piperidine-1-carbonyl)phenyl)amino)-5-methyl-5H-benzo[e]pyrimido[5,4-b][1,4]diazepin-6(11H)-one]
- KINOMEscan: FGFR3 [1]: 88
- KINOMEscan: LTK [2]: 11
- KINOMEscan: MAST1 [3]: 78

SMILES: CCOc1cc(C(=O)N2CCC(N3CCN(C)CC3)CC2)ccc1Nc1ncc2c(n1)N(C1CCCC1)c1ccccc1C(=O)N2C [Compound 26]
- KINOMEscan: FGFR3 [1]: 100
- KINOMEscan: LTK [2]: 48
- KINOMEscan: MAST1 [3]: 100
